Legend:
[1] = system: Femur was isolated from 10- to 11-day chick embryo; conditions: 100 µM
Procedure: Inhibitory effect of various compounds on bone resorption was tested according to the method described in "Advanced Tissue Cultures For In Vitro Assay And Production" (pages 111-114, edited by Isao Yamane & Hiroyoshi Endo, Published by SOFT SCIENCE, Inc. Tokyo).
Femur was isolated from 10- to 11-day chick embryo. After cleaned from adherent soft tissues, the preparation was precultivated in 1 ml of BGJb-HW2 culture medium containing benzofuro[3,2-c]quinoline derivatives of the present invention at 37° C for 24 hours using the roller-tube method. Tested compounds were dissolved in dimethylsulfoxide at a concentration of 0.1 M and the solution was diluted with the culture medium to make a final concentration of 10-^4 M of those compounds. In the case of control group, the same volume of dimethylsulfoxide was added.
On the next day, the precultivated femur was further cultivated for 2 hours at 37° C in 1 ml of fresh culture medium containing 1 µCi/ml of ^45CaCl2 to label the bone mineral with ^45Ca. Then, the cultivated bone was rinsed with a phosphate-buffered saline warmed at 37' C to remove ^45Ca adhered to the bone. ^45Ca-Labelled bone was again cultivated using the roller-tube method (10 revolutions/hr), and the radioactivity of ^45Ca in an aliquot of the culture medium was determined by liquid scintillation counter at a point of 12, 24, 48 and 72 hours, respectively. The culture medium was freshed at each determination of the radioactivity. After completion of the cultivation, the bone was immersed in 1 ml of 1 N HCI for 24 hours to elute all calcium in the bone, and the remaining radioactivity in the bone was determined.
From the obtained data, the rate of remaining radioactivity of the bone to the initial radioactivity of the bone was measured at each observation. Then the eluting rate of bone mineral by osteoclasts was obtained by linear-regression of decay curve for the rate of remaining radioactivity in the bone after 24 to 72 hours of the cultivation, and turnover rate of calcium in the bone mineral accumulated in the cultivated bone was estimated as biological half-life (T1/2).
The potency of the inhibition of presented compounds was calculated by the following equation using T1/2.

[2] = system: Femur was isolated from 9-day chick embryo; assay: Stimulatory effect on ossification (femur organ culture, calcium content); assay type: cell-based; conditions: 10-^5 M; cultivated for 6 days; eluted calcium versus paired control femur; mean value of 6 observations
Procedure: Stimulatory effect of various compounds on ossification was tested according to the method described in "Advanced Tissue Cultures For In Vitro Assay And Production" (pages 111-114, edited by Isao Yamane & Hiroyoshi Endo, Published by SOFT SCIENCE, Inc. Tokyo).
Femur was isolated from 9-day chick embryo. After cleaned from adherent soft tissues, one femur of a paired femur was used for a test of compound of the present invention, and the other femur was used as control group. One preparation was placed directly on the inner surface of a glass roller-tube, and 2 ml of BGJb-HW2 culture medium was added to each tube. Each preparation was cultivated at 37° C by the roller-tube method (10 revolutions/hr) for 6 days. During the cultivation, femur length was measured, and the culture medium was freshed every other day. Tested compounds were dissolved in dimethylsulfoxide at a concentration of 0.01 M and the solution was diluted by the culture medium to make a final concentraiton of 10-^5 M of those compounds. In the case of control group, the same volume of dimethylsulfoxide was added.
After completion of the cultivation, the bone was immersed in 1 N HCI for 24 hours to elute all calcium in the bone, and the eluted calcium was determined by chelating method using orthocresolphthalein.
The potency of the stimulatory effect on ossification of presented compounds was calculated by the following equation. [formula]
The results are shown in the following table as the mean value of 6 observations.

[3] = system: femur of rats loaded low calcium diets; assay: Effect on calcium and phosphorus contents in femur of rats loaded low calcium diets; assay type: in vivo, male Wistar rats; conditions: 300 mg/kg orally once a day for 2 weeks, mean±standard error of the mean of 10 observations
Procedure: Twenty male Wistar rats of 3 weeks age were divided into 2 groups. All animals were raised with low calcium diets. Test compound, 3,9-dihydroxy-5H-benzofuro [3,2-c]quinolin-6-one (compound 2) suspended in 0.5% sodium carboxymethyl cellulose solution (CMC) was orally administered to 1 group at a dose of 300 mg/kg once a day for 2 weeks. Another group recieved the same volume of CMC. After completion of the experiment, calcium and phosphorus contents in the femur were determined.
The results were shown in the following table as mean±standard error of the mean of 10 observations.

| SMILES | Inhibitory potency on bone resorption [1] | further results |
| --- | --- | --- |
| CC(Oc1ccc2c(c1)[nH]c(=O)c1c3ccccc3oc21)C(=O)O (stereo not drawn) [Compound 7, 3-(1-Carboxyethoxy)-5H-benzofuro[3,2-c]quinolin-6-one] | 1.10 |  |
| O=c1[nH]c2cc(O)ccc2c2oc3ccccc3c12 [Compound 1, 3-Hydroxy-5H-benzofuro[3,2-c]quinolin-6-one] | 1.24 |  |
| COc1ccc2c(c1)[nH]c(=O)c1c3ccc(OC)cc3oc21 [Compound 13, 3,9-Dimethoxy-5H-benzofuro[3,2-c]quinolin-6-one] | 1.04 |  |
| O=c1[nH]c2cc(O)ccc2c2oc3cc(O)ccc3c12 [Compound 2, 3,9-Dihydroxy-5H-benzofuro[3,2-c]quinolin-6-one] | 1.97 | Stimulatory potency on ossification [2]: 1.11; Amount of calcium (mg/femur) [3]: 8.1±0.50 mg/femur; Amount of phosphorus (mg/femur) [3]: 5.1±0.26 mg/femur |
| O=c1[nH]c2cc(O)ccc2c2oc3ccc(O)cc3c12 [Compound 3, 3,8-Dihydroxy-5H-benzofuro[3,2-c]quinolin-6-one] | 2.52 |  |
| O=c1[nH]c2cc(OCCCO)ccc2c2oc3cc(O)ccc3c12 [Compound 11, 9-Hydroxy-3-(3-hydroxypropoxy)-5H-benzofuro[3,2-c]quinolin-6-one] | 2.89 | Stimulatory potency on ossification [2]: 1.14 |
| O=c1[nH]c2cc(OCCCO)ccc2c2oc3ccccc3c12 [Compound 5, 3-(3-Hydroxypropoxy)-5H-benzofuro[3,2-c]quinolin-6-one] | 1.26 |  |
| CC(C)Oc1ccc2c(c1)[nH]c(=O)c1c3ccc(O)cc3oc21 [Compound 9, 9-Hydroxy-3-isopropoxy-5H-benzofuro[3,2-c]quinolin-6-one] | 2.89 | Stimulatory potency on ossification [2]: 1.08 |
| CCOC(=O)C(C)Oc1ccc2c(c1)[nH]c(=O)c1c3ccccc3oc21 (stereo not drawn) [Compound 6, 3-(1-Ethoxycarbonylethoxy)-5H-benzofuro[3,2-c]quinolin-6-one] | 1.10 |  |
| O=c1[nH]c2cc(OCCCO)ccc2c2oc3cc(OCCCO)ccc3c12 [Compound 10, 3,9-Bis(3-hydroxypropoxy)-5H-benzofuro[3,2-c]quinolin-6-one] | 1.40 |  |
| CC(C)Oc1ccc2c(c1)[nH]c(=O)c1c3ccccc3oc21 [Compound 4, 3-Isopropoxy-5H-benzofuro[3,2-c]quinolin-6-one] | 1.16 |  |
| CC(C)Oc1ccc2c(c1)[nH]c(=O)c1c3ccc(OC(C)C)cc3oc21 [Compound 8, 3,9-Diisopropoxy-5H-benzofuro[3,2-c]quinolin-6-one] | 1.24 |  |
| CCOC(=O)C(C)Oc1ccc2c(c1)[nH]c(=O)c1c3ccc(OC(C)C(=O)OCC)cc3oc21 (stereo not drawn) [Compound 12, 3,9-Bis(1-ethoxycarbonylethoxy)-5H-benzofuro[3,2-c]quinolin-6-one] | 1.16 |  |
